Data on one molecule can be found in US20180296639A1, “THERAPEUTIC PEPTIDES” (Hoffmann-La Roche Inc., priority 2015, published 2018).

One assay addresses T1, GAPDH/Siah1 association (Homo sapiens, UniProt P04406+Q8IUQ4).
T1 construct: immunoprecipitation (IP) with anti-Siah1, followed by western blot (WB) analysis of the immuno-complexes with anti-GAPDH; endogenous in cells; host or cells: primary human retinal pericytes (hRP), Cell Systems
Description: Co-immunoprecipitation (pull down) of GAPDH/Siah1 association in hRP. The class given is cell-based. Conditions: high glucose 25 mM 48 hrs vs L-glucose 25 mM. As to the method:
HRP were treated with normal glucose (5 mM), high glucose (25 mM) or L-glucose (25 mM) for 48 hrs.
HRP were treated with normal, osmotic control or high glucose plus 10 μM negative control siRNA, 10 μM Siah1-directed siRNA, 1 μM TAT-FLAG Control, 1 μM TAT-FLAG GAPDH peptide, 1 μM TAT-FLAG Siah1 peptide or 1 μM GAPDH+1 μM Siah1 peptides. Pull down assays were performed as described above. Our GAPDH peptide was designed to block the GAPDH binding site on Siah1 and the Siah1 peptide was designed to block the Siah1 binding site on GAPDH (Supplemental Table 1).
HRP Treatment: Primary cultures of human retinal pericytes (hRP) (Cell Systems; Kirkland, Wash.) were seeded into tissue culture flasks coated with attachment factor (Cell Signaling; Danvers, Mass.). HRP were grown and cultured in Dulbecco's modified Eagle's medium normal glucose (5.5 mM DMEM 1×, Life Technologies; Carlsbad, Calif.) supplemented with 10% FBS, and cell growth supplements, including antibiotics (Lonza; Basel). All cultures were incubated at 37° C., 5% CO2 and 95% relative humidity (20.9% oxygen). Passages 5 to 7 were used for all experiments. HRP identity was confirmed by immunoreactivity of neuron glial 2 (NG2) (EMD Millipore; Temecula, Calif.). […] A FLAG tag peptide sequence enables detection and quantification of these peptides (FIG. 12). […]

A further assay relates to Siah1. Description: Siah1 total protein western blot in hRP. The class given is cell-based, human. Conditions: 25 mM D-glucose 48 hrs vs 25 mM L-glucose. As for the experimental part: HRP were treated with normal glucose (5 mM D-glucose), osmotic control (25 mM L-glucose) or high glucose (25 mM D-glucose) for 48 hrs. Siah1 total protein increased 2-fold in cultures treated with high glucose compared to those treated with the osmotic control (p=0.0136). There was no significant difference between osmotic control and normal glucose treated cells (FIG. 1A).
Nuclear Fractionation and Western Blot Analysis: HRP were treated as necessary. Cells were harvested using TrypLE Express (Life Technologies), and lysed using radioimmunoprecipitation assay (RIPA) buffer (Qiagen; Limburg, Netherlands). The NE-PER nuclear and cytoplasmic extraction reagents (Thermo Scientific; Nashville, Tenn.) were used to separate lysates into cytosolic and nuclear fractions. Samples were equilibrated for total protein concentration, subjected to 10% SDS/PAGE, and gels were transferred to nitrocellulose membranes using the iBlot system (Life Technologies). […] (β-actin was used to determine total protein concentration. Membranes were incubated in Pierce ECL western blotting substrate and developed using ChemiDoc MP (Bio-Rad; Hercules, Calif.). At least three independent experiments were used to generate western blot quantification graphs. Blots were quantified using the ImageJ 1.47v software.
On the technique in general: In western blotting, separated proteins are transferred to a membrane and probed.

For assay [1], the system named is human retinal pericytes (hRP). Description: Apoptosis measurement by caspase-3 enzymatic activity in hRP. The class given is cell-based. Conditions: 25 mM D-glucose for 72 hrs. As for the experimental part:
HRP were treated with normal glucose, L-glucose or high glucose for 48 hrs-72 hrs. […] Furthermore, GAPDH and Siah1 blocking peptides inhibited high glucose-induced hRP apoptosis (FIG. 5D Control Peptide p=0.0019, GAPDH peptide p=0.0090, Siah1 peptide p=0.0053).
HRP Treatment: Primary cultures of human retinal pericytes (hRP) (Cell Systems; Kirkland, Wash.) were seeded into tissue culture flasks coated with attachment factor (Cell Signaling; Danvers, Mass.). HRP were grown and cultured in Dulbecco's modified Eagle's medium normal glucose (5.5 mM DMEM 1×, Life Technologies; Carlsbad, Calif.) supplemented with 10% FBS, and cell growth supplements, including antibiotics (Lonza; Basel). All cultures were incubated at 37° C., 5% CO2 and 95% relative humidity (20.9% oxygen). Passages 5 to 7 were used for all experiments. HRP identity was confirmed by immunoreactivity of neuron glial 2 (NG2) (EMD Millipore; Temecula, Calif.). […] A FLAG tag peptide sequence enables detection and quantification of these peptides (FIG. 12).
Apoptosis Measurements: All apoptosis measurements were taken after 72 hrs of appropriate treatment. […] Samples were quantified using flow cytometry analysis performed at Vanderbilt's Flow Cytometry Shared Resource core laboratory. […] Activity was quantified using the EnzChek Caspase-3 Assay Kit (Life Technologies). […] Fluorescence emission at 440 nm was measured 2 hrs later.

T1 sequence (Q8IUQ4 whole entry): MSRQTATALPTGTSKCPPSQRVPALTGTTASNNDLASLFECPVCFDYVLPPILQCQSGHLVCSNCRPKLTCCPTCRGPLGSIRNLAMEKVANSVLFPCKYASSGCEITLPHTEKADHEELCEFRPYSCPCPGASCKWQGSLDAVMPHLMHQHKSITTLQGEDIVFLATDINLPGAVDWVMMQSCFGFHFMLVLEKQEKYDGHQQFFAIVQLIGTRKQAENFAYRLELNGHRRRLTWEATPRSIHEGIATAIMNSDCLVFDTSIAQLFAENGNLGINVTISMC
T1 sequence (P04406 2-335 limits assumed): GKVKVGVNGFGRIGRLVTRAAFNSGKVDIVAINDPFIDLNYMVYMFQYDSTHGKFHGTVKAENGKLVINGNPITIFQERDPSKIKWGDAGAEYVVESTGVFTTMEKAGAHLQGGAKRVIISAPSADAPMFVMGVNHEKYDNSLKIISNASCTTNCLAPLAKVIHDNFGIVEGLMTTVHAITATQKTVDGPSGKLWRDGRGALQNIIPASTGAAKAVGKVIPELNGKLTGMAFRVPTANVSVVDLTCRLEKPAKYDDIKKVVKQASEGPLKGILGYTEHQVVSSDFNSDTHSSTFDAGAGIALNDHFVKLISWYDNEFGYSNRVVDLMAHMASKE

With `O=C[C@H](O)[C@@H](O)[C@H](O)[C@H](O)CO` [high glucose, D-glucose], the “increase in GAPDH/Siah1 association vs osmotic control” value at GAPDH/Siah1 association was 1.5 fold. Further, the “increase of Siah1 total protein vs osmotic control” value with Siah1 is on record as 2 fold. Moreover, the “increase in caspase-3-enzymatic activity” value in assay [1] came to 3 fold.
